According to ChEMBL document CHEMBL1201862, “PubChem BioAssay data set” (2004):
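96-well plates; 48 h exposure; 5 concentrations. Endpoints by linear interpolation between flanking doses. Not reached: highest tested concentration assigned. Abbreviation: GI50, concentration required for 50% inhibition of growth.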 Calls of active or inactive are those of the source. No stated cut-off is given here; in the data, active = GI50 up to about 1.1 µM and inactive = higher.

Columns and labels:
Assay in all cases: NCI-60 cell line screen, 48 h
CCRF-CEM = test system: CCRF-CEM
SN12C = test system: SN12C
LOX IMVI = test system: LOX IMVI
SF-268 = test system: SF-268
HT-29 = test system: HT-29
EKVX = test system: EKVX
HOP-92 = test system: HOP-92
UACC-62 = test system: UACC-62
K562 = test system: K562
SW-620 = test system: SW-620
HOP-62 = test system: HOP-62
RXF 393 = test system: RXF 393
NCI-H23 = test system: NCI-H23
SF-539 = test system: SF-539
SK-MEL-5 = test system: SK-MEL-5
HCT-15 = test system: HCT-15
SK-MEL-2 = test system: SK-MEL-2
PC-3 = test system: PC-3

SMILES	GI50 (CCRF-CEM)	GI50 (SN12C)	GI50 (LOX IMVI)	GI50 (SF-268)	GI50 (HT-29)	GI50 (EKVX)	GI50 (HOP-92)	GI50 (UACC-62)	GI50 (K562)	GI50 (SW-620)	GI50 (HOP-62)	GI50 (RXF 393)	GI50 (NCI-H23)	GI50 (SF-539)	GI50 (SK-MEL-5)	GI50 (HCT-15) [µM]	GI50 (SK-MEL-2)	GI50 (PC-3)
CCOC(=N)/C(=C1\OC(=N)C(c2ccc(Cl)cc2)=C1O)c1ccc(Cl)cc1	18.2 µM (inactive)	14.8 µM (inactive)	13.9 µM (inactive)	14.5 µM (inactive)	23.2 µM (inactive)	18.1 µM (inactive)	18.5 µM (inactive)	15.5 µM (inactive)	19.8 µM (inactive)	17.6 µM (inactive)	22.5 µM (inactive)	13.8 µM (inactive)	15.3 µM (inactive)	16.5 µM (inactive)	–	–	–	–
Nc1ncnc2c1ncn2[C@]1(CO)C=C(CO)C(O)C1O (stereo partly drawn)	–	> 100 µM (inactive)	> 100 µM (inactive)	> 100 µM (inactive)	> 100 µM (inactive)	–	> 100 µM (inactive)	–	–	> 100 µM (inactive)	52.5 µM (inactive)	> 100 µM (inactive)	> 100 µM (inactive)	–	> 100 µM (inactive)	> 100	> 100 µM (inactive)	–
COc1cc(C(C)O)c[n+](CCC2CNc3ccccc32)c1 (stereo not drawn)	> 100 µM (inactive)	> 100 µM (inactive)	> 100 µM (inactive)	27 µM (inactive)	71.6 µM (inactive)	33 µM (inactive)	–	> 100 µM (inactive)	> 100 µM (inactive)	> 100 µM (inactive)	> 100 µM (inactive)	–	> 100 µM (inactive)	> 100 µM (inactive)	> 100 µM (inactive)	> 100	> 100 µM (inactive)	–
O=C(C[n+]1ccccc1)N/N=C(/CCC(=O)N(Cc1ccccc1)Cc1ccccc1)CC(=O)c1ccccc1	> 100 µM (inactive)	> 100 µM (inactive)	> 100 µM (inactive)	> 100 µM (inactive)	> 100 µM (inactive)	> 100 µM (inactive)	> 100 µM (inactive)	> 100 µM (inactive)	> 100 µM (inactive)	> 100 µM (inactive)	> 100 µM (inactive)	> 100 µM (inactive)	> 100 µM (inactive)	> 100 µM (inactive)	> 100 µM (inactive)	> 100	> 100 µM (inactive)	–
N#C/C(=C\c1ccc(O)c(O)c1)c1c(C#N)c(N)nn1-c1ccccc1	4.11 µM (inactive)	10.3 µM (inactive)	5.05 µM (inactive)	7.38 µM (inactive)	22 µM (inactive)	7.45 µM (inactive)	8.71 µM (inactive)	3.81 µM (inactive)	3.94 µM (inactive)	12.8 µM (inactive)	10 µM (inactive)	–	7.43 µM (inactive)	6.64 µM (inactive)	6.58 µM (inactive)	11.7	13 µM (inactive)	–
O=C(N/C(=C\c1ccc(/C=C(\NC(=O)c2ccccc2)c2nc3c(O)nc(S)nc3[nH]2)cc1)c1nc2c(O)nc(S)nc2[nH]1)c1ccccc1	26.2 µM (inactive)	> 100 µM (inactive)	38 µM (inactive)	57.9 µM (inactive)	75 µM (inactive)	> 100 µM (inactive)	> 100 µM (inactive)	34.3 µM (inactive)	30.3 µM (inactive)	46.6 µM (inactive)	> 100 µM (inactive)	38.6 µM (inactive)	55.7 µM (inactive)	61.9 µM (inactive)	64.4 µM (inactive)	> 100	8.71 µM (inactive)	–
CC12O[C@H](c3ccccc3)[C@H](c3ccccc3)N1C(=O)C1(C(=O)OCc3ccccc3)CC12 (stereo partly drawn)	28.6 µM (inactive)	> 100 µM (inactive)	> 100 µM (inactive)	> 100 µM (inactive)	76 µM (inactive)	–	23.5 µM (inactive)	> 100 µM (inactive)	37.3 µM (inactive)	> 100 µM (inactive)	> 100 µM (inactive)	–	–	–	88.7 µM (inactive)	86.5	33.3 µM (inactive)	–
O/N=C1/CCC/C1=C\c1ccccc1	> 100 µM (inactive)	> 100 µM (inactive)	> 100 µM (inactive)	> 100 µM (inactive)	> 10 µM (inactive)	21.9 µM (inactive)	> 100 µM (inactive)	> 100 µM (inactive)	74.1 µM (inactive)	> 100 µM (inactive)	> 100 µM (inactive)	96.6 µM (inactive)	> 100 µM (inactive)	> 100 µM (inactive)	> 100 µM (inactive)	> 100	> 100 µM (inactive)	–
O=C(CCl)N1CCN(c2ccccn2)CC1	19.9 µM (inactive)	–	–	23.6 µM (inactive)	17.7 µM (inactive)	26.9 µM (inactive)	21.3 µM (inactive)	–	31.7 µM (inactive)	23.8 µM (inactive)	22.7 µM (inactive)	23.4 µM (inactive)	19.8 µM (inactive)	–	18.1 µM (inactive)	> 10	–	> 100 µM (inactive)
CC(C)c1c2[nH]c3ccccc3c2c(C(C)C)c2[nH]c3ccccc3c12	> 52.5 µM (inactive)	35.6 µM (inactive)	35.5 µM (inactive)	> 100 µM (inactive)	10.9 µM (inactive)	> 100 µM (inactive)	22.4 µM (inactive)	> 100 µM (inactive)	7.78 µM (inactive)	> 82 µM (inactive)	> 100 µM (inactive)	> 100 µM (inactive)	> 100 µM (inactive)	> 100 µM (inactive)	> 100 µM (inactive)	16	> 100 µM (inactive)	–
CC1(C)OC2CC3COC(=O)C3CC2O1 (stereo not drawn)	> 100 µM (inactive)	> 100 µM (inactive)	> 100 µM (inactive)	> 100 µM (inactive)	> 100 µM (inactive)	> 100 µM (inactive)	> 100 µM (inactive)	> 100 µM (inactive)	> 100 µM (inactive)	> 100 µM (inactive)	> 100 µM (inactive)	–	> 100 µM (inactive)	> 100 µM (inactive)	> 100 µM (inactive)	> 100	> 100 µM (inactive)	–
CC(=O)O/N=C/c1ncccc1CO	> 100 µM (inactive)	> 100 µM (inactive)	> 100 µM (inactive)	> 100 µM (inactive)	> 100 µM (inactive)	> 100 µM (inactive)	> 100 µM (inactive)	> 100 µM (inactive)	> 100 µM (inactive)	> 100 µM (inactive)	> 100 µM (inactive)	> 100 µM (inactive)	> 100 µM (inactive)	> 100 µM (inactive)	> 100 µM (inactive)	> 100	> 100 µM (inactive)	–
CCOC(=O)[C@H]1Nc2ccc(Cl)cc2[C@H]2c3ccccc3O[C@H]21	–	> 100 µM (inactive)	> 100 µM (inactive)	> 100 µM (inactive)	99.3 µM (inactive)	> 100 µM (inactive)	–	41.8 µM (inactive)	56.5 µM (inactive)	> 100 µM (inactive)	> 100 µM (inactive)	> 100 µM (inactive)	> 10 µM (inactive)	> 100 µM (inactive)	64.7 µM (inactive)	16.4	> 100 µM (inactive)	–
Cc1ccc(NC(=O)CCc2nc(N)nc(N)c2-c2ccccc2)cc1C	> 100 µM (inactive)	> 100 µM (inactive)	–	> 100 µM (inactive)	> 100 µM (inactive)	> 100 µM (inactive)	> 100 µM (inactive)	> 100 µM (inactive)	> 100 µM (inactive)	> 100 µM (inactive)	> 100 µM (inactive)	–	> 100 µM (inactive)	> 100 µM (inactive)	> 100 µM (inactive)	> 100	> 100 µM (inactive)	–
O=[N+]([O-])c1ccccc1/C=N/C12CC3CC(CC(C3)C1)C2	30.9 µM (inactive)	> 100 µM (inactive)	47.4 µM (inactive)	> 100 µM (inactive)	34.3 µM (inactive)	> 100 µM (inactive)	72.8 µM (inactive)	> 100 µM (inactive)	29.8 µM (inactive)	46.6 µM (inactive)	99.5 µM (inactive)	> 100 µM (inactive)	> 100 µM (inactive)	80.2 µM (inactive)	61.4 µM (inactive)	42.1	65.8 µM (inactive)	–
CC(C)COC1Sc2ccccc2S1	27.7 µM (inactive)	18.8 µM (inactive)	12.7 µM (inactive)	23.1 µM (inactive)	13.1 µM (inactive)	20 µM (inactive)	14.5 µM (inactive)	4.91 µM (inactive)	–	29.7 µM (inactive)	21.4 µM (inactive)	18.2 µM (inactive)	22.3 µM (inactive)	–	–	22.4	–	–
CN(C)C(=O)c1ccc([N+](=O)[O-])cc1	> 100 µM (inactive)	> 100 µM (inactive)	> 100 µM (inactive)	> 100 µM (inactive)	> 100 µM (inactive)	> 100 µM (inactive)	> 100 µM (inactive)	> 100 µM (inactive)	> 100 µM (inactive)	> 100 µM (inactive)	> 100 µM (inactive)	> 100 µM (inactive)	> 100 µM (inactive)	> 100 µM (inactive)	> 100 µM (inactive)	> 100	> 100 µM (inactive)	–
Cc1cc(O)cc2oc(=O)c3c(O)cc(O)cc3c12 [ALTERNARIOL]	23.4 µM (inactive)	50.5 µM (inactive)	16.1 µM (inactive)	27.4 µM (inactive)	39.3 µM (inactive)	6.71 µM (inactive)	30.5 µM (inactive)	24 µM (inactive)	36.6 µM (inactive)	16.2 µM (inactive)	20.7 µM (inactive)	23.3 µM (inactive)	20.7 µM (inactive)	17 µM (inactive)	18.5 µM (inactive)	18.2	37.6 µM (inactive)	–
